The record followed here is patent US4007177A, “Cephalosporin derivatives” (Sankyo Company Limited, priority 1973, dated 1977).

≈ marks a conversion by molar mass, not a printed value. Read-outs that look alike come from different tables or passages of the source.

Holding throughout (format): cell-based
One experiment relates to S.aureus 209p. As to the kind of experiment: Minimum inhibitory concentration, S.aureus 209p. Conditions: Staphylococcus aureus. On the procedure: (§1) Minimum inhibitory concentrations (MIC) were determined for the compounds of this invention.
The next experiment relates to S.aureus R. The experiment in a line: Minimum inhibitory concentration, S.aureus R. Conditions: Staphylococcus aureus. On the procedure:
as §1

The next experiment concerns E. coli NIHJ. As to the kind of experiment: Minimum inhibitory concentration, E. coli NIHJ. Conditions: Escherichia coli. As to the method:
as §1

The subject of another experiment is E. coli 609 (R). The experiment in a line: Minimum inhibitory concentration, E. coli 609 (R). Conditions: Escherichia coli, read-out: Minimum Inhibitory Concentration. As to the method:
as §1

Another experiment concerns Sh. flexneri 2a. As to the kind of experiment: Minimum inhibitory concentration, Sh. flexneri 2a. Particulars: Shigella flexneri. On the procedure:
as §1

A further experiment has as its system Klebsiella 806. As to the kind of experiment: Minimum inhibitory concentration, Klebsiella 806. On the procedure: as §1
The next experiment relates to Klebsiella 846. The experiment in a line: Minimum inhibitory concentration, Klebsiella 846. On the procedure: as §1
For the next experiment, the system named is Prot. vulgaris. As to the kind of experiment: Minimum inhibitory concentration, Prot. vulgaris. Particulars: Proteus vulgaris. As to the method: as §1
The next experiment relates to Salm. ent. Gaertner. The experiment in a line: Minimum inhibitory concentration, Salm. ent. Gaertner. Conditions: read-out: Minimum Inhibitory Concentration. On the procedure:
as §1

With `COC1(NC(=O)C[n+]2cc([O-])on2)C(=O)N2C(C(=O)O)=C(CSc3nnnn3C)CSC21` (stereo not drawn), the MIC against S.aureus 209p was 0.8 µg/mL (≈ 1.65 µM); against S.aureus R, 1.5 µg/mL (≈ 3.1 µM); against E. coli NIHJ it was 1.5 µg/mL (≈ 3.1 µM); in the experiment with E. coli 609 (R) (E. coli 609 (R)), 1.5 µg/mL (≈ 3.1 µM); with Sh. flexneri 2a, 1.5 µg/mL (≈ 3.1 µM); in the experiment on Klebsiella 806, 1.5 µg/mL (≈ 3.1 µM). Further, the figures for the MIC against Klebsiella 846, in the experiment with Prot. vulgaris and in the experiment with Salm. ent. Gaertner (Salm. ent. Gaertner) were over 200 µg/mL, 6.2 µg/mL (≈ 12.8 µM) and 0.8 µg/mL (≈ 1.65 µM), respectively.

Consider `COC1(NC(=O)COc2ccon2)C(=O)N2C(C(=O)O)=C(CSc3nnnn3C)CSC21` (stereo not drawn), for which the MIC is 0.2 µg/mL (≈ 0.414 µM) with S.aureus 209p; 0.8 µg/mL (≈ 1.65 µM) against S.aureus R; 3.1 µg/mL (≈ 6.41 µM) against E. coli NIHJ; 3.1 µg/mL (≈ 6.41 µM) in the experiment with E. coli 609 (R) (E. coli 609 (R)); 3.1 µg/mL (≈ 6.41 µM) with Sh. flexneri 2a; 3.1 µg/mL (≈ 6.41 µM) with Klebsiella 806. Further, the MIC against Klebsiella 846 was over 400 µg/mL; in the experiment on Prot. vulgaris it was 6.2 µg/mL (≈ 12.8 µM); in the experiment on Salm. ent. Gaertner (Salm. ent. Gaertner), 1.5 µg/mL (≈ 3.1 µM).

For the compound `COC1(NC(=O)CSc2ccon2)C(=O)N2C(C(=O)O)=C(CSc3nnnn3C)CSC21` (stereo not drawn), the MIC worked out at 0.2 µg/mL (≈ 0.4 µM) with S.aureus 209p; 0.8 µg/mL (≈ 1.6 µM) against S.aureus R; 3.1 µg/mL (≈ 6.21 µM) against E. coli NIHJ; 3.1 µg/mL (≈ 6.21 µM) in the experiment with E. coli 609 (R) (E. coli 609 (R)); 3.1 µg/mL (≈ 6.21 µM) against Sh. flexneri 2a; 6.2 µg/mL (≈ 12.4 µM) against Klebsiella 806. In addition, the MIC in the experiment with Klebsiella 846 was over 400 µg/mL; in the experiment on Prot. vulgaris, 3.1 µg/mL (≈ 6.21 µM); in the experiment with Salm. ent. Gaertner (Salm. ent. Gaertner), 0.8 µg/mL (≈ 1.6 µM).

With `COC1(NC(=O)CSc2ccon2)C(=O)N2C(C(=O)O)=C(COC(C)=O)CSC21` (stereo not drawn) [3-Acetoxymethyl-7β-(3-isoxazolylthioacetamido)-7α-methoxy-3-cephem-4-carboxylic acid], the MIC in the experiment on S.aureus 209p was 0.2 µg/mL (≈ 0.451 µM); in the experiment with S.aureus R, 0.8 µg/mL (≈ 1.8 µM); with Sh. flexneri 2a it was 6.2 µg/mL (≈ 14 µM); with Klebsiella 846, over 400 µg/mL.

Regarding `CCS(=O)(=O)CC(=O)N[C@]1(OC)C(=O)N2C(C(=O)O)=C(CSc3nnnn3C)CS[C@@H]21` [C2 H 5 SO2, 7β-Ethylsulfonylacetamido-7α-methoxy-3-(1-methyl-1H-tetrazol-5-yl)thiomethyl-3-cephem-4-carboxylic acid], the MIC against S.aureus 209p, against S.aureus R, in the experiment on E. coli NIHJ, in the experiment on E. coli 609 (R) (E. coli 609 (R)), in the experiment with Sh. flexneri 2a and in the experiment on Klebsiella 806 was 1.5 µg/mL (≈ 3.05 µM) each time. Besides, the MIC in the experiment with Klebsiella 846 is over 400 µg/mL; against Prot. vulgaris it was 6.2 µg/mL (≈ 12.6 µM); in the experiment with Salm. ent. Gaertner (Salm. ent. Gaertner), 0.8 µg/mL (≈ 1.62 µM).

For the compound `COC1(NC(=O)Cc2ccccc2)C(=O)N2C(C(=O)O)=C(COC(N)=O)CSC21` (stereo not drawn) [C6 H5, reference compound], the MIC in the experiment on S.aureus 209p turned out to be 0.8 µg/mL (≈ 1.9 µM); with S.aureus R it was 3.1 µg/mL (≈ 7.36 µM); against E. coli NIHJ, 25 µg/mL (≈ 59.3 µM); in the experiment with E. coli 609 (R) (E. coli 609 (R)), 25 µg/mL (≈ 59.3 µM); against Sh. flexneri 2a it was 12.5 µg/mL (≈ 29.7 µM); in the experiment on Klebsiella 806, 25 µg/mL (≈ 59.3 µM). Moreover, the MIC in the experiment with Klebsiella 846 is over 400 µg/mL; against Prot. vulgaris, 25 µg/mL (≈ 59.3 µM); in the experiment on Salm. ent. Gaertner it was 12.5 µg/mL (≈ 29.7 µM).

In the case of `COC1(NC(=O)CS(C)(=O)=O)C(=O)N2C(C(=O)O)=C(CSc3nnnn3C)CSC21` (stereo not drawn) [CH3 SO2, 7α-Methoxy-7β-methylsulfonylacetamido-3-(1-methyl-1H-tetrazol-5-yl)thiomethyl-3-cephem-4-carboxylic acid], the MIC in the experiment with S.aureus 209p came out at 0.8 µg/mL (≈ 1.67 µM); against Sh. flexneri 2a, 1.5 µg/mL (≈ 3.13 µM); with Klebsiella 806 it was 0.8 µg/mL (≈ 1.67 µM); against Klebsiella 846, 400 µg/mL (≈ 836 µM); in the experiment with Salm. ent. Gaertner (Salm. ent. Gaertner) it was 0.4 µg/mL (≈ 0.836 µM).

As to `CC(=O)OCC1=C(C(=O)O)N2C(=O)[C@@H](NC(=O)Cc3cccs3)[C@H]2SC1` [Cephalothin, reference compound], the MIC in the experiment on E. coli NIHJ is 6.2 µg/mL (≈ 15.6 µM); with E. coli 609 (R), 25 µg/mL (≈ 63.1 µM); against Sh. flexneri 2a it was 12.5 µg/mL (≈ 31.5 µM); against Klebsiella 806, 6.2 µg/mL (≈ 15.6 µM); with Klebsiella 846 it was over 200 µg/mL; in the experiment with Prot. vulgaris, 6.2 µg/mL (≈ 15.6 µM). For the same compound, the MIC in the experiment with Salm. ent. Gaertner (Salm. ent. Gaertner) is 6.2 µg/mL (≈ 15.6 µM).

For the compound `C#CCSCC(=O)NC1(OC)C(=O)N2C(C(=O)O)=C(CSc3nnnn3C)CSC21` (stereo not drawn) [HCCCH2 S, 3-(1-Methyl-1H-tetrazol-5-yl)thiomethyl-7β-propargylthioacetamido-7α-methoxy-3-cephem-4-carboxylic acid], the MIC in the experiment on S.aureus 209p came out at 0.2 µg/mL (≈ 0.425 µM); with S.aureus R, 0.8 µg/mL (≈ 1.7 µM); in the experiment with Sh. flexneri 2a, 3.1 µg/mL (≈ 6.59 µM); against Klebsiella 846, 400 µg/mL (≈ 850 µM); with Salm. ent. Gaertner (Salm. ent. Gaertner), 0.8 µg/mL (≈ 1.7 µM).

`COC1(NC(=O)CSCCO)C(=O)N2C(C(=O)O)=C(CSc3nnnn3C)CSC21` (stereo not drawn) [HOCH2 CH2 S, 7β-(2-Hydroxyethyl)thioacetamido-7α-methoxy-3-(1-methyl-1H-tetrazol-5-yl)thiomethyl-3-cephem-4-carboxylic acid]: the MIC in the experiment on S.aureus 209p was 0.8 µg/mL (≈ 1.68 µM); with S.aureus R, 1.5 µg/mL (≈ 3.15 µM); in the experiment on E. coli NIHJ, 1.5 µg/mL (≈ 3.15 µM); in the experiment with E. coli 609 (R) (E. coli 609 (R)), 1.5 µg/mL (≈ 3.15 µM); in the experiment on Sh. flexneri 2a, 3.1 µg/mL (≈ 6.5 µM); against Klebsiella 806 it was 1.5 µg/mL (≈ 3.15 µM). For the same compound, the figures for the MIC in the experiment on Klebsiella 846, with Prot. vulgaris and in the experiment with Salm. ent. Gaertner (Salm. ent. Gaertner) were 400 µg/mL (≈ 839 µM), 6.2 µg/mL (≈ 13 µM) and 1.5 µg/mL (≈ 3.15 µM), respectively.

In the case of `CO[C@@]1(NC(=O)CSCN=[N+]=[N-])C(=O)N2C(C(=O)O)=C(COC(N)=O)CS[C@@H]21` [N3 CH2 S, OCONH2, 7β-Azidomethylthioacetamido-3-carbamoyloxymethyl-7α-methoxy-3-cephem-4-carboxylic acid], the MIC in the experiment on S.aureus 209p stood at 0.2 µg/mL (≈ 0.462 µM); against S.aureus R, 1.5 µg/mL (≈ 3.47 µM); in the experiment with E. coli NIHJ, 3.1 µg/mL (≈ 7.17 µM); in the experiment on E. coli 609 (R) (E. coli 609 (R)), 6.2 µg/mL (≈ 14.3 µM); in the experiment on Sh. flexneri 2a, 3.1 µg/mL (≈ 7.17 µM); against Klebsiella 806, 3.1 µg/mL (≈ 7.17 µM). Further, the values for the MIC against Klebsiella 846, in the experiment with Prot. vulgaris and in the experiment on Salm. ent. Gaertner (Salm. ent. Gaertner) were over 400 µg/mL, 3.1 µg/mL (≈ 7.17 µM) and 1.5 µg/mL (≈ 3.47 µM), respectively.

`COC1(NC(=O)CSCN=[N+]=[N-])C(=O)N2C(C(=O)O)=C(CSc3nnnn3C)CSC21` (stereo not drawn) [N3 CH2 S]: the MIC turned out to be 0.4 µg/mL (≈ 0.82 µM) in the experiment on S.aureus 209p; 0.4 µg/mL (≈ 0.82 µM) against S.aureus R; 3.1 µg/mL (≈ 6.36 µM) with E. coli NIHJ; 3.1 µg/mL (≈ 6.36 µM) with E. coli 609 (R) (E. coli 609 (R)); 1.5 µg/mL (≈ 3.08 µM) against Sh. flexneri 2a; 3.1 µg/mL (≈ 6.36 µM) against Klebsiella 806. Besides, the MIC against Klebsiella 846 was over 200 µg/mL; against Prot. vulgaris, 1.5 µg/mL (≈ 3.08 µM); in the experiment on Salm. ent. Gaertner (Salm. ent. Gaertner) it was 0.8 µg/mL (≈ 1.64 µM).

For the compound `COC1(NC(=O)CS(=O)(=O)CCC#N)C(=O)N2C(C(=O)O)=C(CSc3nnnn3C)CSC21` (stereo not drawn) [NCCH2 CH2 SO2, 7β-(2-Cyanoethylsulfonyl)acetamido-7α-methoxy-3-(1-methyl-1H-tetrazol-5-yl)thiomethyl-3-cephem-4-carboxylic acid], the MIC in the experiment on S.aureus 209p turned out to be 1.5 µg/mL (≈ 2.9 µM); in the experiment on S.aureus R, 3.1 µg/mL (≈ 5.99 µM); in the experiment with E. coli NIHJ it was 1.5 µg/mL (≈ 2.9 µM); in the experiment with E. coli 609 (R) (E. coli 609 (R)) it was 1.5 µg/mL (≈ 2.9 µM); against Sh. flexneri 2a, 3.1 µg/mL (≈ 5.99 µM); against Klebsiella 806, 1.5 µg/mL (≈ 2.9 µM). In addition, the MIC came out at 200 µg/mL (≈ 386 µM) in the experiment with Klebsiella 846, 6.2 µg/mL (≈ 12 µM) in the experiment on Prot. vulgaris and 0.8 µg/mL (≈ 1.55 µM) in the experiment with Salm. ent. Gaertner (Salm. ent. Gaertner).
